{
  "source": "patent EP0646015B1",
  "about": "“CONTRACEPTIVE VACCINE” (THE UNIVERSITY OF CONNECTICUT, priority 1992, dated 1993)",
  "test_system": "sperm-egg fusion",
  "experiment": "sperm-egg fusion inhibition assay",
  "type": "cell-based, guinea pig",
  "parameters": "inhibits sperm-egg fusion / % Inhibition: concentration or dose not given beside the values",
  "procedure": "The fusion inhibition assay was carried out as follows. Eggs were collected from guinea pig ovaries. The eggs were incubated in tissue culture medium overnight. The zona pellucida was removed with a mixture of proteases. The zona pellucida free eggs were incubated in culture media with peptide at a specified concentration for 30 minutes.\nSperm collected from the epididymis of male guinea pigs was capacitated by incubation and acrosome reacted as described by Fleming and Yanagimachi (Gamete Res. 4: 253-273 (1981)) and added to the eggs and incubated for 15 minutes. The eggs were then transferred to a sperm free culture medium and incubated for an additional 1 hour and 45 minutes. The eggs were then fixed and stained as described by Primakoff et al. (J. Cell. Biol. 104: 141 (1987)). The total number of swollen sperm heads were then counted. Swollen sperm heads are an indication that the sperm and egg have fused.\nOn the basis of these observations, several indices are calculated. The fertilization index (F.I.) is determined by dividing the total number of swollen heads by the total number of eggs. The fertilization rate (F.R.) is the percentage of eggs fertilized. The percent inhibition is determined by dividing the fertilization index of the experimental peptide by the fertilization index of the control peptide.",
  "note": "Several values for one entry are separate records, joined by “and”; a condition that tells them apart may be missing. Identical values can stand only once.",
  "data": [
    {"substance": "CSTDEC", "values": [
      {"measurement": "F.R.", "setting": "Table 4, TDE peptides compared with no peptide control", "result": "8% and 11%"},
      {"measurement": "% Inhibition", "setting": "Table 4, relative to F.I. of no peptide control of the same experiment", "result": "89% and 95%"},
      {"measurement": "% Inhibition", "setting": "Table 5, relative to F.I. of control peptide GRGES of the same experiment", "result": "90% and 98%"},
      {"measurement": "inhibition of sperm-egg fusion (in words)", "setting": "compared to no peptide or control peptide", "result": "strongly inhibited"},
      {"measurement": "inhibits sperm-egg fusion", "setting": "when the fertilization index is near the normal level of 1 sperm per egg, compared with no peptide (Table 4)", "result": 89, "unit": "%"}
    ]}
  ]
}
